Several values for one entry are separate records, joined by “and”; a condition that tells them apart may be missing. Equal values may be shown once.
Key:
[1] = system: dopamine release, substantia nigra; test: Release of biogenic amines from brain tissue: dopamine, substantia nigra; type: in vivo, Wistar rats
[2] = system: dopamine release, tuberculum olfactorium; test: Release of biogenic amines from brain tissue: dopamine, tuberculum olfactorium; type: in vivo, Wistar rats
[3] = system: noradrenaline release, locus coeruleus; test: Release of biogenic amines from brain tissue: noradrenaline, locus coeruleus; type: in vivo, Wistar rats
serotonin release, raphe = test: Release of biogenic amines from brain tissue: serotonin, raphe; type: in vivo, Wistar rats
α1 receptor = test: Affinity to α1 receptor; design: species or system rat; conditions: read-out: Affinity to α1 receptor (MIC50; mole concentration for 50% inhibition of binding); 0.25 nM ^3H-prazocin; 90 min
Experimental: The solution of receptor was prepared as follows. As soon as rats were decapitated, brain was removed and its weight was measured. Its brain was homogenized in ten times volumes of ice-cold 0.35 M sucrose (pH 7.4) by glass homogenizer with teflon pestle which was revolted by motors. Thereafter, the homogenate was centrifuged at 4° C. at 900×g for 10 min and the supernatant was, furthermore, recentrifuged at 4° C. at 22,000×g for 20 min. The precipitate was suspended by addition of 5 mM phosphate buffer solution (pH 7.4). After the suspension was incubated at 37° C. for 30 min, the suspension was recentrifuged at 4° C. at 22,000×g for 20 min. The precipitate was resuspended by addition of 10 ml of 5 mM phosphate buffer solution (pH 8.0). The precipitate was used as the solution of receptor.
^3 H-prazocin was used as a ligand. 0.25 nM ^3 H-prazocin in 5 mM phosphate buffer (pH 8.0), the compound of this invention and the solution of receptor were added in tube and the mixture were incubated at 25° C. for 90 min. In addition, the […] binding was shown by binding value of ^3 H-prazocin under the coexistence with 0.1 μM prazocin. The binding reaction was carried out as follows. After ^3 H-prazocin (binding type: B) bound to receptor using glassfiberfilter (pore size: 0.5 μm, Whatman GF/C.) and free type of prazocin (free type: F) were separated with B/F separator (Brandel, USA), only the binding type of ^3 H-prazocin was collected. The binding type of ^3 H-prazocin absorbed to glass-fiber filter was washed with ice-cold saline solution and was remove to vial. After 10 ml of scintillation cocktail was added in it, the radioactivity was determined. From the binding inhibition rate of α1 receptor and ligand, affinity of the compounds of this invention to α1 receptor was measured.
If affinity of certain compound to a receptor is high, the binding ligand and receptor is inhibited.

D1 receptor = target: T1, D1 receptor (Rattus norvegicus, UniProt P18901); test: Affinity to D1 receptor; type: binding
T1 construct: The precipitate was used as the solution of receptor; from tissue; host or cells: rat brain (whole) crude membranes
T1 sequence (P18901 whole entry): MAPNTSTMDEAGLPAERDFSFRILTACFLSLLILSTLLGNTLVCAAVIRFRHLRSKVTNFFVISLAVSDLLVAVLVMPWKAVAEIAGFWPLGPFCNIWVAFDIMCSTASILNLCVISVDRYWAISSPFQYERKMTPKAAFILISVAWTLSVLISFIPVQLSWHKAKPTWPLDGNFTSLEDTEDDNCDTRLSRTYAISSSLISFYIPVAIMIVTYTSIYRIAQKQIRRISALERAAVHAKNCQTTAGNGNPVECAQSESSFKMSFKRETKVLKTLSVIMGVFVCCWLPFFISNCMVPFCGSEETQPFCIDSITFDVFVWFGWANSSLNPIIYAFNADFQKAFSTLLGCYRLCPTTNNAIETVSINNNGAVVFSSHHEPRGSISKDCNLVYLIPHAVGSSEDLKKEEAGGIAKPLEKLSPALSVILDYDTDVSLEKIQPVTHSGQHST

D2 receptor = test: Affinity to D2 receptor; design: species or system rat; conditions: read-out: Affinity to D2 receptor (MIC50; mole concentration for 50% inhibition of binding); 2.0 nM spiperone
5-HT2 receptor = target: T2, 5-HT2 receptor (Rattus norvegicus, UniProt P14842); test: Affinity to 5-HT2 receptor; type: binding
T2 construct: The precipitate was used as the solution of receptor; from tissue; host or cells: rat brain (whole) crude membranes
T2 sequence (P14842 whole entry): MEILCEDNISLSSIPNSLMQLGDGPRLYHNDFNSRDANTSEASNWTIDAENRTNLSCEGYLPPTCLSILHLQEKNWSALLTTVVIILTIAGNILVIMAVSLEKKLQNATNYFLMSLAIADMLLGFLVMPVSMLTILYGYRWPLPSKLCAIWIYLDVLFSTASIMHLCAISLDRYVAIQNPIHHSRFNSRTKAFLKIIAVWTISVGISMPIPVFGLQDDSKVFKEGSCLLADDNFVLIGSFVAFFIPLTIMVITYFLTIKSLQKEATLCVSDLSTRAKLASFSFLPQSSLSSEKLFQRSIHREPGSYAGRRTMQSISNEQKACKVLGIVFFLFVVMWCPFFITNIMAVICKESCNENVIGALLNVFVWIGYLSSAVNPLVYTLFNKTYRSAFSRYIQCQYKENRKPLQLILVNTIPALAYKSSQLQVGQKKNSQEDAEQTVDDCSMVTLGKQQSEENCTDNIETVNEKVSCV

SMILES: CCCNC(CCC)Cc1c[nH]c2ccccc12.Cl (stereo not drawn) [Compound No. 20, 1-(Indol-3-yl)-2-propylaminopentane Hydrochloride]
- Release of dopamine, substantia nigra ([1]; 0.005 mg/kg s.c.): 8.7 ± 0.13 nmol/g tissue, for 20 min
- Release of dopamine, substantia nigra ([1]; 0.01 mg/kg s.c., Hydrochloride): 10.3 ± 0.23 nmol/g tissue, for 20 min and 10.0 ± 0.14 nmol/g tissue, for 20 min
- Release of dopamine, substantia nigra ([1]; 0.05 mg/kg s.c.): 7.7 ± 0.15 nmol/g tissue, for 20 min
- Release of dopamine, substantia nigra ([1]; 0.25 mg/kg s.c.): 5.2 ± 0.26 nmol/g tissue, for 20 min
- Release of dopamine, substantia nigra ([1]; 1.00 mg/kg s.c.): 6.7 ± 0.19 nmol/g tissue, for 20 min
- Release of dopamine, substantia nigra ([1]; 5.00 mg/kg s.c.): 5.7 ± 0.18 nmol/g tissue, for 20 min
- Release of dopamine, tuberculum olfactorium ([2]; 0.005 mg/kg s.c.): 7.0 ± 0.25 nmol/g tissue, for 20 min
- Release of dopamine, tuberculum olfactorium ([2]; 0.01 mg/kg s.c., Hydrochloride): 8.0 ± 0.17 nmol/g tissue, for 20 min and 5.5 ± 0.20 nmol/g tissue, for 20 min
- Release of dopamine, tuberculum olfactorium ([2]; 0.05 mg/kg s.c.): 5.8 ± 0.19 nmol/g tissue, for 20 min
- Release of dopamine, tuberculum olfactorium ([2]; 0.25 mg/kg s.c.): 3.5 ± 0.21 nmol/g tissue, for 20 min
- Release of dopamine, tuberculum olfactorium ([2]; 1.00 mg/kg s.c.): 4.3 ± 0.07 nmol/g tissue, for 20 min
- Release of dopamine, tuberculum olfactorium ([2]; 5.00 mg/kg s.c.): 4.8 ± 0.09 nmol/g tissue, for 20 min
- Release of noradrenaline, locus coeruleus ([3]; 0.005 mg/kg s.c.): 5.3 ± 0.30 nmol/g tissue, for 20 min
- Release of noradrenaline, locus coeruleus ([3]; 0.01 mg/kg s.c., Hydrochloride): 4.3 ± 0.10 nmol/g tissue, for 20 min and 2.2 ± 0.15 nmol/g tissue, for 20 min
- Release of noradrenaline, locus coeruleus ([3]; 0.05 mg/kg s.c.): 3.2 ± 0.15 nmol/g tissue, for 20 min
- Release of noradrenaline, locus coeruleus ([3]; 0.25 mg/kg s.c.): 4.3 ± 0.15 nmol/g tissue, for 20 min
- Release of noradrenaline, locus coeruleus ([3]; 1.00 mg/kg s.c.): 4.4 ± 0.25 nmol/g tissue, for 20 min
- Release of noradrenaline, locus coeruleus ([3]; 5.00 mg/kg s.c.): 3.5 ± 0.20 nmol/g tissue, for 20 min
- Release of serotonin, raphe (serotonin release, raphe; 0.005 mg/kg s.c.): 0.492 ± 0.02 nmol/g tissue, for 20 min
- Release of serotonin, raphe (serotonin release, raphe; 0.01 mg/kg s.c., Hydrochloride): 0.961 ± 0.02 nmol/g tissue, for 20 min and 0.938 ± 0.01 nmol/g tissue, for 20 min
- Release of serotonin, raphe (serotonin release, raphe; 0.05 mg/kg s.c.): 1.203 ± 0.08 nmol/g tissue, for 20 min
- Release of serotonin, raphe (serotonin release, raphe; 0.25 mg/kg s.c.): 0.481 ± 0.05 nmol/g tissue, for 20 min
- Release of serotonin, raphe (serotonin release, raphe; 1.00 mg/kg s.c.): 0.355 ± 0.05 nmol/g tissue, for 20 min
- Release of serotonin, raphe (serotonin release, raphe; 5.00 mg/kg s.c.): 0.565 ± 0.01 nmol/g tissue, for 20 min
- IC50 (α1 receptor): 80 µM
- IC50 (D1 receptor): > 10 µM
- IC50 (D2 receptor): > 10 µM
- IC50 (5-HT2 receptor): > 10 µM

SMILES: CCCNC(CCC)Cc1ccc2c(c1)OCO2.Cl (stereo not drawn) [Compound No. 27, 1-(1,3-Benzodioxol-5-yl)-2-propylaminopentane Hydrochloride]
- Release of dopamine, substantia nigra ([1]; 0.10 mg/kg s.c.): 7.8 ± 0.44 nmol/g tissue, for 20 min
- Release of dopamine, substantia nigra ([1]; 0.25 mg/kg s.c.): 9.5 ± 0.32 nmol/g tissue, for 20 min
- Release of dopamine, tuberculum olfactorium ([2]; 0.10 mg/kg s.c.): 4.7 ± 0.13 nmol/g tissue, for 20 min
- Release of dopamine, tuberculum olfactorium ([2]; 0.25 mg/kg s.c.): 5.2 ± 0.23 nmol/g tissue, for 20 min
- Release of noradrenaline, locus coeruleus ([3]; 0.10 mg/kg s.c.): 3.8 ± 0.15 nmol/g tissue, for 20 min
- Release of noradrenaline, locus coeruleus ([3]; 0.25 mg/kg s.c.): 3.5 ± 0.20 nmol/g tissue, for 20 min
- Release of serotonin, raphe (serotonin release, raphe; 0.10 mg/kg s.c.): 0.399 ± 0.00 nmol/g tissue, for 20 min
- Release of serotonin, raphe (serotonin release, raphe; 0.25 mg/kg s.c.): 0.414 ± 0.01 nmol/g tissue, for 20 min
